pEC50: −log10 of the molar value.
Tests used:
[1] = target: human CYP11B1 (Homo sapiens (Human), UniProt P15538); assay: G-402 cellular enzyme assay, human CYP11B1 (cortisol release); type: cell-based; conditions: G-402 cells expressing human CYP11B1, 1 μM Deoxycortisol
In short: (§1)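 G-402 cells stably transfected with human CYP11B2 or CYP11B1, dosed with inhibitor and 1 μM deoxycorticosterone (CYP11B2) or 1 μM deoxycortisol (CYP11B1). Aldosterone or cortisol in supernatant quantified by HTRF; EC50 from 4-parameter MMF fit of steroid level versus inhibitor concentration.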

[2] = target: T1, CYP11B2 (Homo sapiens (Human), UniProt P19099); assay: G-402 cellular enzyme assay, human CYP11B2 (aldosterone release); type: cell-based; conditions: G-402 cells expressing human CYP11B2, 1 μM Deoxycorticosterone
In short: as §1

[3] = rat CKD model; FAD286 4 weeks of treatment, spironolactone 4 and 8 weeks; cited from earlier work
[4] = target: T1, CYP11B2; conditions: patients with primary aldosteronism, oral; cited from earlier work

Sequence of human CYP11B1 (P15538 25-503): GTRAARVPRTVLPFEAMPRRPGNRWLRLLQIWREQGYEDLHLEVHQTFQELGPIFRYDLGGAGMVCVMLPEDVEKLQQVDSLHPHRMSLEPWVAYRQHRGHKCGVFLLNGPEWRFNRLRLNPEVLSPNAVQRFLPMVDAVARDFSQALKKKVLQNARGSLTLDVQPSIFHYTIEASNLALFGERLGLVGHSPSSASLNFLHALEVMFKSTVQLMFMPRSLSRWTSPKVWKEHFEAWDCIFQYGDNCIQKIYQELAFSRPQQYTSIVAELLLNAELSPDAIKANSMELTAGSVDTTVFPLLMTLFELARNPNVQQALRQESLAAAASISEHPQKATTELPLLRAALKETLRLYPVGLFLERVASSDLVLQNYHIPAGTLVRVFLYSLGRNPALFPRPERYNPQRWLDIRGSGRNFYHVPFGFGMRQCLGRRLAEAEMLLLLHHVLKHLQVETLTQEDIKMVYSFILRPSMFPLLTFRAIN
T1 sequence (P19099 25-503): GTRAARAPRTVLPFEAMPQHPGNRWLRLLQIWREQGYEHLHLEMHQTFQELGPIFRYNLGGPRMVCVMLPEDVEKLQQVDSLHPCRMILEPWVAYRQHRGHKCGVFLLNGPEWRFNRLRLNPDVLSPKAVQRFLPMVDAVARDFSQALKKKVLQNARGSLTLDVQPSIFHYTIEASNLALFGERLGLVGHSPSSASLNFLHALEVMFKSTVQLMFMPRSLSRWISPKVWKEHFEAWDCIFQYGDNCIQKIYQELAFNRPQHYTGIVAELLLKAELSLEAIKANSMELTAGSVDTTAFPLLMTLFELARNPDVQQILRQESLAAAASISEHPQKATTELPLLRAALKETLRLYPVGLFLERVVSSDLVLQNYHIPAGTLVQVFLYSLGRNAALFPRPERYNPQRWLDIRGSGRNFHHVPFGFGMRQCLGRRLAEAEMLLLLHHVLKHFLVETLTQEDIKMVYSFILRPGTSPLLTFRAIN

Row | SMILES | pEC50 [1] | pEC50 [2] | further results
1 | CCC(=O)NC1CCCc2c(-c3ccc(Cl)cc3)cncc21 (single isomer, unassigned; (-)) [Example 25, (−)-(S or R)—N-(4-(4-Chlorophenyl)-5,6,7,8-tetrahydroisoquinolin-8-yl)propionamide] | 4.64 | 6.33 | –
2 | C[C@@H](O)C(=O)NC1CCCc2c(-c3ccc(C(F)(F)F)cc3)cncc21 (single isomer, unassigned; (-)) [Example 48, (−)-(R)-2-Hydroxy-N—[(S or R)-4-(4-trifluoromethyl-phenyl)-5,6,7,8-tetrahydro-isoquinolin-8-yl]-propionamide] | 5.68 | 7.10 | –
3 | CCS(=O)(=O)NC1CCc2c(-c3ccc(C(F)(F)F)cc3)cncc21 (single isomer, unassigned; (-)) [Example 65, (−)-(S or R)—N-(4-(4-(Trifluoromethyl)phenyl)-6,7-dihydro-5H-cyclopenta[c]pyridin-7-yl)ethanesulfonamide] | 5.97 | 5.79 | –
4 | OC1CCCc2c(-c3ccc(C(F)(F)F)cc3)cncc21 (single isomer, unassigned; (-)) [Example 105, (−)-(S or R)-4-(4-(Trifluoromethyl)phenyl)-5,6,7,8-tetrahydroisoquinolin-8-ol] | 5.78 | 6.97 | –
5 | C[C@@H](O)C(=O)NC1CCCc2c(-c3ccc(C(F)(F)F)cc3)cncc21 (stereo partly drawn) [Example 46, (R)-2-Hydroxy-N—[(S,R)-4-(4-trifluoromethyl-phenyl)-5,6,7,8-tetrahydro-isoquinolin-8-yl]-propionamide] | 5.43 | 6.80 | –
6 | CC(=O)N[C@@H]1CCCc2c(-c3ccc(C#N)cc3)cncc21 [Example 78, (+)-(R)—N-(4-(4-Cyanophenyl)-5,6,7,8-tetrahydroisoquinolin-8-yl)acetamide] | 6.56 | 7.63 | –
7 | N#Cc1ccc(C2CCCc3cncn32)cc1 (stereo not drawn) [FAD286] | – | – | plasma aldosterone [3]: reduced
8 | N#Cc1ccc([C@H]2CCc3cncn32)c(F)c1 [LCI699] | – | – | blood pressure [4]: mildly decreased; circulating aldosterone levels [4]: significantly lower; hypokalemia [4]: corrected
9 | CC(=O)S[C@@H]1CC2=CC(=O)CC[C@]2(C)[C@H]2CC[C@@]3(C)[C@@H](CC[C@@]34CCC(=O)O4)[C@H]12 [spironolactone] | – | – | plasma aldosterone [3]: increased

Further lines, with some results ahead:

Row | pEC50 [1] | pEC50 [2] | SMILES | further results
10 | 5.14 | 6.06 | CCC(=O)NC1CCc2c(-c3ccc(C#N)cc3)cncc21 (single isomer, unassigned; (-)) [Example 18, (−)-(S or R)—N-(4-(4-Cyanophenyl)-6,7-dihydro-5H-cyclopenta[c]pyridin-7-yl)propionamide] | –
11 | 4.52 | 6.65 | CCC(=O)NC1CCCc2c(-c3ccc(F)c(C)c3)cncc21 (single isomer, unassigned; (-)) [Example 28, (−)-(S or R)—N-(4-(4-Fluoro-3-methylphenyl)-5,6,7,8-tetrahydroisoquinolin-8-yl)propionamide] | –
12 | 4.37 | 5.35 | CCC(=O)NC1CCCc2c(-c3ccc(C(F)(F)F)cc3F)cncc21 (single isomer, unassigned; (-)) [Example 34, (−)-(S or R)—N-(4-(2-Fluoro-4-(trifluoromethyl)phenyl)-5,6,7,8-tetrahydroisoquinolin-8-yl)propionamide] | –
13 | 4.50 | 5.90 | CCC(=O)NC1CCCc2c(-c3ccc(Cl)c(F)c3)cncc21 (single isomer, unassigned; (-)) [Example 37, (−)-(S or R)—N-(4-(4-Chloro-3-fluorophenyl)-5,6,7,8-tetrahydroisoquinolin-8-yl)propionamide] | –
14 | 4.49 | 5.31 | CCC(=O)NC1CCCc2c(-c3ccc(C(F)(F)F)c(F)c3)cncc21 (single isomer, unassigned; (-)) [Example 40, (−)-(S or R)—N-(4-(3-Fluoro-4-(trifluoromethyl)phenyl)-5,6,7,8-tetrahydroisoquinolin-8-yl)propionamide] | –
15 | 4.42 | 5.49 | CCC(=O)NC1CCc2c(-c3ccc(Cl)c(F)c3)cncc21 (single isomer, unassigned; (-)) [Example 56, (−)-(S or R)—N-(4-(4-Chloro-3-fluorophenyl)-6,7-dihydro-5H-cyclopenta[c]pyridin-7-yl)propionamide] | –
16 | 4.83 | 5.78 | CCC(=O)NC1CCc2c(-c3ccc(C(F)(F)F)cc3F)cncc21 (single isomer, unassigned; (-)) [Example 62, (−)-(S or R)—N-(4-(2-Fluoro-4-(trifluoromethyl)phenyl)-6,7-dihydro-5H-cyclopenta[c]pyridin-7-yl)propionamide] | –
17 | 5.43 | 6.69 | C[C@@H](O)C(=O)NC1CCc2c(-c3ccc(C(F)(F)F)cc3)cncc21 (stereo partly drawn) [Example 52, (R)-2-Hydroxy-N—((R,S)-4-(4-(trifluoromethyl)phenyl)-6,7-dihydro-5H-cyclopenta[c]pyridin-7-yl)propanamide] | –
18 | 5.91 | 7.48 | N[C@@H]1CCCc2c(-c3ccc(C(F)(F)F)cc3F)cncc21 [Example 74, (+)-(R)-4-(2-Fluoro-4-(trifluoromethyl)phenyl)-5,6,7,8-tetrahydroisoquinolin-8-amine] | –
19 | 5.45 | 7.29 | CC(=O)N[C@@H]1CCCc2c(-c3ccc(C(F)(F)F)cc3F)cncc21 [Example 75, (+)-(R)—N-(4-(2-Fluoro-4-(trifluoromethyl)phenyl)-5,6,7,8-tetrahydroisoquinolin-8-yl)acetamide] | –
20 | 4.63 | 6.93 | CS(=O)(=O)N[C@@H]1CCCc2c(-c3ccc(C(F)(F)F)cc3F)cncc21 [Example 76, (+)-(R)—N-(4-(2-Fluoro-4-(trifluoromethyl)phenyl)-5,6,7,8-tetrahydroisoquinolin-8-yl)methanesulfonamide] | –
21 | 5.65 | 7.23 | CC(=O)N[C@@H]1CCCc2c(-c3ccc(C(F)(F)F)cc3)cncc21 [Example 77, (+)-(R)—N-(4-(4-(Trifluoromethyl)phenyl)-5,6,7,8-tetrahydroisoquinolin-8-yl)acetamide] | –
22 | 5.75 | 7.45 | CC(=O)N[C@@H]1CCCc2c(-c3ccc(C(F)(F)F)c(F)c3)cncc21 [Example 79, (+)-(R)—N-(4-(3-Fluoro-4-(trifluoromethyl)phenyl)-5,6,7,8-tetrahydroisoquinolin-8-yl)acetamide] | –
23 | 5.11 | 6.02 | CCC(=O)N[C@@H]1CCCc2c(-c3ccc(C(F)(F)F)cc3C3CC3)cncc21 [Example 107, (R)—N-(4-(2-Cyclopropyl-4-(trifluoromethyl)phenyl)-5,6,7,8-tetrahydroisoquinolin-8-yl)propionamide] | –
